Marks after values point to notes of the source that are not given here.
Key:
MV-4-11 cells = test: MV-4-11 proliferation EC50 assay (CellTiter-Glo); type: cell-based; details: Homo sapiens, MV4-11, 48 h, read-out: MV-4-11 proliferation EC50, ave. ± S.D.
Procedure: Human biphenotypic B myelomonocytic leukemia MV-4-11 cells (ATCC, Manassas, Va.) were treated with test compounds at 2e5 cells/ml in IMDM medium containing 10% (v/v) FBS (Life Technologies, Grand Island, N.Y.) and 1×Pen/Strep Amphotericin B (Lonza, Allendale, N.J.). Compounds were tested at 25 μM down by ⅓ in a 9 point serial dilution series. Cells were incubated for 48 h at 37° C. in a humidified atmosphere at 5% CO2. MV-4-11 cell proliferation was then indirectly determined via cellular ATP content using the CellTiter-Glo® Luminescent Cell Viability Assay (Promega, Madison, Wis.) as per the manufacturer's instructions. Briefly, experimental plates were equilibrated at room temperature for 30 minutes. An equal volume of CellTiter-Glo® reagent was added to each well and incubated for 15 minutes at room temperature. Luminescent signal was read using the Wallac 1420 Victor^2 multilabel microplate reader (Perkin Elmer, Waltham, Mass.). EC50 values were determined using GraphPad Prism software v5.04.

[1] = test system: DNFB-induced ear inflammation mouse model; test: DNFB-induced ear inflammation (contact hypersensitivity) mouse model: ear weight; type: in vivo, mouse (Balb/c); details: 3 mg/kg PO, QD on Day 5 (elicitation)
Procedure: (§1) In vivo T-cell mediated immune response was examined in a mouse model of CHS using the hapten dinitrofluorobenzene (DNFB) as the induction agent. Method for sensitization and elicitation of DNFB-induced CHS was modified from Xu et al. J. Exp. Med. 1996. 183:1001-1012. On Days 0 and 1 (sensitization), 20 μL of 0.5% v/v DNFB in acetone:olive oil (4:1) was applied to each hindpaw of 8 week old male mice (Balb/c, Charles River Laboratories; 10 mice per group unless otherwise noted). On Day 5 (elicitation) 10 μL of 0.2% v/v DNFB in acetone: olive oil (4:1) was applied to the dorsal surface of the right ear of each animal; 10 μL of acetone: olive oil (4:1) was applied to the dorsal surface of the left ear as control. Treatments were administered by group as indicated in the table below; on days when DNFB was used, the QD and the morning dose of BID as appropriate were administered 30 minutes-1 hr. prior to DNFB application. […] Approximately 24 hours after elicitation (Day 6), a 7 mm tissue punch from the central portion of both ears was collected and wet weights measured. The primary functional assessment was the difference in wet weights of the right (DNFB) vs. left (vehicle) ears compared to the vehicle treatment (Vehicle1-S) as an indicator of inflammation (Table 17). Ear tissue punches were flash frozen, stored at −70° C. and analyzed for cytokines (see below). Body weights of the mice were measured at baseline and at end of study, and there were no significant changes in weight in any treatment group during the study (data not shown).

[2] = test system: DNFB-induced ear inflammation mouse model; test: DNFB-induced ear inflammation mouse model: cytokine concentrations in ear tissue; type: in vivo, mouse (Balb/c); details: Dex 3 mg/kg PO, regimen E
Procedure: as §1, with “Method for sensitization and elicitation of DNFB-induced CHS was modified from Xu et al. J. Exp. Med. 1996. 183:1001-1012.” left out, “below).” for “below). Body weights of the mice were measured at baseline and at end of study, and there were no significant changes in weight in any treatment group during the study (data not shown).”
Cytokine concentrations after DNFB induction and treatment were analyzed in the weighed and flash frozen tissues of the right (DNFB) and left (control) 7 mm ear punches. The ear tissues were stored at −70° C. until prepared for analysis as follows. Left or right ear tissues from the same treatment group were pooled and crushed with mortar and pestle under liquid nitrogen. Tissue representing 7-8 ear punches by weight was homogenized in Buffer A (50 mM HEPES pH 7.4, 100 mM NaCl) containing 1 tablet EDTA-free Protease Inhibitor (Thermo Fisher Scientific, Rockford, Ill.) per 10 mL, 1× Phosphatase Inhibitor Cocktail II (AG Scientific, San Diego, Calif.), and 1 mM PMSF (Sigma, St. Louis, Mo.). Homogenization was performed in Lysing Matrix D tubes (MP Biomedicals, Solon, Ohio), using the FastPrep-24 instrument (MP Biomedicals) at a speed setting of 6 for 4 cycles of 30 seconds, with cooling on ice in between cycles. The tubes were then centrifuged at 1,000×g for 10 min at 4° C. Supernatant was collected and briefly sonicated using the Microson probe sonicator at setting 3 (Misonix, Farmingdale, N.Y.) before centrifuging again at 10,000×g for 10 min at 4° C. The supernatant was ultracentrifuged at 100,000×g for 1 h at 4° C. in the Optima Max-E (Beckman Coulter, Indianapolis, Ind.) to separate soluble and membrane protein fractions. The soluble (supernatant) fraction was collected and protein concentrations determined using the Dc protein kit (Bio-Rad, Hercules, Calif.). Soluble ear proteins were analyzed in triplicate for cytokine response at a final protein concentration of 4 mg/ml using the Bio-Plex Pro Mouse Cytokine 23-Plex panel (Bio-Rad) as per manufacturer's protocols. Magnetic beads were read on the Bio-Plex MAGPIX multiplex reader instrument using the accompanying xPONENT 4.2 acquisition software (Bio-Rad Laboratories, Hercules, Calif.). Data were analyzed via the Bio-Plex Manager software v6.1 (Bio-Rad Laboratories). Response was calculated as a percentage of the cytokine concentrations measured in the right (DNFB) ears of vehicle 1 dosed (S regimen, i.e. dosed Day 0-5) mice (Table 18).

[3] = test system: Imiquimod-induced psoriasis mouse model; test: Imiquimod (IMQ)-induced acute model of psoriasis in mouse: skin thickness, erythema, scaling; type: in vivo, mouse (Balb/c)
Procedure: Material and methods for the IMQ study were adapted from van der Fits et al. J Immunol., 2009, 182: 5836-5845. Eight week old male Balb/c mice (Harlan) received a daily topical dose of 62.5 mg 5% IMQ cream (Aldara™, Medicis) equivalent to 3.125 mg IMQ, on the shaved back (approximately 2×3.5 cm patch) and dorsal surface of the right ear for 6 consecutive days. Sham control mice were treated similarly with control cream (Hydrous Emulsified Base, HEB, Cream, Fagron). Treatments were administered by group as indicated in Table 1 below prior to daily application of IMQ (QD and morning dose of BID regimens), n=10 for all groups. […] Body weights and scoring of induced clinical disease were performed after dosing (Days 1-7) but prior to IMQ application (Days 1-6) on Days 1 (baseline), 3, 4, 6, 8. Mice were sacrificed on Day 8 and treated back skin tissue collected and divided for fixation for histopathology (a 12 mm punch in mid-back) the remainder flash frozen; right (IMQ) and left (control) ears, spleen (after wet weight) and lung were also individually collected and flash frozen, and stored at −70° C. for subsequent biochemical analyses. Statistics were performed using one-way ANOVA with Dunnett's post-hoc test comparing treated groups to the vehicle group, using InStat software (GraphPad, La Jolla, Calif.).
The severity of clinical disease was assessed by
1) skin thickness dial gauge micrometer measurements (duplicate) of the ears and the dorsal skin at the midline of the back (equal to double true measure of dorsal skin thickness)
2) erythema and scaling, independently scored on a scale from 0-4: 0=none, 1=slight, 2=moderate, 3=marked, 4=very marked with intermediate increments of 0.5 allowed.
Clinical disease assessments included erythema, scaling, skin thickness and cumulative disease severity scores and the change in skin thickness of the ears and dorsal back skin over time compared to baseline measurements (Tables 19 and 20). Body weights of the mice were measured at baseline and at end of study, and there were no significant changes in weight in any treatment group during the study (data not shown).

[4] = Day 1 (baseline), Dexamethasone 3 mg/kg PO
[5] = Day 3, Dexamethasone 3 mg/kg PO
[6] = Day 4, Dexamethasone 3 mg/kg PO
[7] = Day 6, Dexamethasone 3 mg/kg PO
[8] = Day 8, Dexamethasone 3 mg/kg PO

## CN1C(=O)c2ccccc2N(C)c2nc(Nc3ccc(N4CCC(O)CC4)cn3)ncc21 [Compound IV-5 in WO 2010/080712]
MV-4-11 cells
  EC50: 1120 nM

## C[C@@H]1C[C@H]2[C@@H]3CCC4=CC(=O)C=C[C@]4(C)[C@@]3(F)[C@@H](O)C[C@]2(C)[C@@]1(O)C(=O)CO [Dexamethasone, reference compound]
[1]
  % Reduction Weight Increase Vs. Vehicle 1 Weight Increase: −60.0%
[2]
  IFN-γ: Mean % Cytokine Concentration in DNFB Treated Right Ears versus Vehicle 1-Dosed (S) Mice: 74%
  IL-1α: Mean % Cytokine Concentration in DNFB Treated Right Ears versus Vehicle 1-Dosed (S) Mice: 189%
  IL-1β: Mean % Cytokine Concentration in DNFB Treated Right Ears versus Vehicle 1-Dosed (S) Mice: 53%
  IL-3: Mean % Cytokine Concentration in DNFB Treated Right Ears versus Vehicle 1-Dosed (S) Mice: 76%
  IL-5: Mean % Cytokine Concentration in DNFB Treated Right Ears versus Vehicle 1-Dosed (S) Mice: 58%
  IL-6: Mean % Cytokine Concentration in DNFB Treated Right Ears versus Vehicle 1-Dosed (S) Mice: 36%
  IL-12 (p40): Mean % Cytokine Concentration in DNFB Treated Right Ears versus Vehicle 1-Dosed (S) Mice: 59%
  IL-13: Mean % Cytokine Concentration in DNFB Treated Right Ears versus Vehicle 1-Dosed (S) Mice: 81%
  IL-17A: Mean % Cytokine Concentration in DNFB Treated Right Ears versus Vehicle 1-Dosed (S) Mice: 63%
  KC: Mean % Cytokine Concentration in DNFB Treated Right Ears versus Vehicle 1-Dosed (S) Mice: 29%
  MCP-1: Mean % Cytokine Concentration in DNFB Treated Right Ears versus Vehicle 1-Dosed (S) Mice: 41%
  MIP-1α: Mean % Cytokine Concentration in DNFB Treated Right Ears versus Vehicle 1-Dosed (S) Mice: 53%
  MIP-1β: Mean % Cytokine Concentration in DNFB Treated Right Ears versus Vehicle 1-Dosed (S) Mice: 39%
  RANTES: Mean % Cytokine Concentration in DNFB Treated Right Ears versus Vehicle 1-Dosed (S) Mice: 42%
  TNF-α: Mean % Cytokine Concentration in DNFB Treated Right Ears versus Vehicle 1-Dosed (S) Mice: 74%
[3]; [4]
  Clinical Score Erythema (0-4), AVG Score: 0
  Clinical Score Scaling (0-4), AVG Score: 0
[3]; [5]
  % Mean DORSAL BACK THICKNESS versus day 1, AVG: 3.08%
  % Mean LEFT EAR THICKNESS [Control] versus day 1, AVG: −9.64%
  % Mean RIGHT EAR THICKNESS [IMQ] versus day 1, AVG: −5.32%
  Clinical Score Erythema (0-4), AVG Score: 0.05
  Clinical Score Scaling (0-4), AVG Score: 0
[3]; [6]
  % Mean DORSAL BACK THICKNESS versus day 1, AVG: 13.71%
  % Mean LEFT EAR THICKNESS [Control] versus day 1, AVG: −10.38%
  % Mean RIGHT EAR THICKNESS [IMQ] versus day 1, AVG: −2.08%
  Clinical Score Erythema (0-4), AVG Score: 0.65
  Clinical Score Scaling (0-4), AVG Score: 0.2
[3]; [7]
  % Mean DORSAL BACK THICKNESS versus day 1, AVG: 13.04** %
  % Mean LEFT EAR THICKNESS [Control] versus day 1, AVG: −9.61%
  % Mean RIGHT EAR THICKNESS [IMQ] versus day 1, AVG: 10.54** %
  Clinical Score Erythema (0-4), AVG Score: 0.45
  Clinical Score Scaling (0-4), AVG Score: 0.5
[3]; [8]
  % Mean DORSAL BACK THICKNESS versus day 1, AVG: 14.32** %
  % Mean LEFT EAR THICKNESS [Control] versus day 1, AVG: −14.05%
  % Mean RIGHT EAR THICKNESS [IMQ] versus day 1, AVG: 10.40** %
  Clinical Score Erythema (0-4), AVG Score: 0.45
  Clinical Score Scaling (0-4), AVG Score: 0.35

— patent US20170008888A1 (KYORIN PHARMACEUTICAL CO., LTD., priority 2014, published 2017)
